Numbered stars: 1 amine (or outer) side, 2 acyl side, 3 side chain; on linkers, the order of the positions; unused ones are H or OH. Bridge positions count the residues as written; N and C are the ends. Square brackets hold non-standard residues; d marks the D form. Peptide text beside a SMILES is read from it. * marks the point of attachment. ξ: configuration not given here. X22 = NC(=O)c1cccc(-c2ccc(C[C@H](N[*:1])C(=O)[*:2])cc2)c1; Phe(4-COOH) = N[C@@H](Cc1ccc(C(=O)O)cc1)C(=O)O; Bip = N[C@@H](Cc1ccc(-c2ccccc2)cc1)C(=O)O; Phe(3-Me) = Cc1cccc(C[C@H](N)C(=O)O)c1; Val(3-OH) = CC(C)(O)[C@H](N)C(=O)O; aIle = CC[C@@H](C)[C@H](N)C(=O)O; 3Pal = N[C@@H](Cc1cccnc1)C(=O)O; 4Pal = N[C@@H](Cc1ccncc1)C(=O)O; Cha = N[C@@H](CC1CCCCC1)C(=O)O; Cit = NC(=O)NCCC[C@H](N)C(=O)O; Ile(3ξ) = CCC(C)[C@H](N)C(=O)O; Thr(3ξ) = CC(O)[C@H](N)C(=O)O; ξ4Pal = NC(Cc1ccncc1)C(=O)O; hSer = N[C@@H](CCO)C(=O)O; Carboxymethyl = O=C(O)C*; NMeA = CN[C@@H](C)C(=O)O; Orn = NCCC[C@H](N)C(=O)O; Dab = NCC[C@H](N)C(=O)O; Ac3c = NC1(C(=O)O)CC1; ξV = CC(C)C(N)C(=O)O
Target: T1, PE-labeled human PD-L1-Ig binding to Jurkat cell line over-expressing human PD-1 (Jurkat-PD-1) (Homo sapiens, UniProt Q15116)
T1 construct: expressed in transfected cells; host or cells: Jurkat
Experiment: Jurkat-PD-1 Cell Binding High-Content Screening Assay (CBA): Method 1
Conditions: Jurkat-hPD-1 cells, PE-labeled PD-L1-Ig 20 nM final; read-out: Jurkat HPDL1 PD1 IC50 (uM) (Method 1)

T1 sequence (Q15116 25-288): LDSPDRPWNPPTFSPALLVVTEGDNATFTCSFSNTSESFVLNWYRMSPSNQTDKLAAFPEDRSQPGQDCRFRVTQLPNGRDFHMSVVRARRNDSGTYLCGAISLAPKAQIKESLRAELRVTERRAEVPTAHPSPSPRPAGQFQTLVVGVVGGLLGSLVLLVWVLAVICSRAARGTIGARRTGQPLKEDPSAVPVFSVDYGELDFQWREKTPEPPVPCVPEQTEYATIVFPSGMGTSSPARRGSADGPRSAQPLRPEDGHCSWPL

Row | SMILES | IC50 [µM]
1 | CC[C@H](C)[C@@H]1NC(=O)[C@H](Cc2ccc(-c3ccccc3)cc2)NC(=O)[C@H](C(C)C)NC(=O)[C@H](Cc2c[nH]c3ccccc23)NC(=O)[C@H](CC(=O)O)NC(=O)[C@H](Cc2ccc(O)cc2)NC(=O)[C@H](Cc2cccnc2)NC(=O)CSC[C@@H](C(=O)N[C@@H](C)C(N)=O)NC(=O)[C@H]([C@@H](C)O)NC(=O)[C@H](C(C)C)NC(=O)[C@H](CC(C)C)NC(=O)[C@H](CCN)NC(=O)[C@@H](CC(C)C)NC(=O)[C@H](C)N(C)C1=O [Compound 1401] ({CH2CO}-[3Pal]YDWV[Bip]I[NMeA][dL][Dab]LVTCA-NH2; thioether N-14) | 0.01
2 | CC(C)C[C@@H]1NC(=O)[C@H](Cc2c[nH]c3ccccc23)NC(=O)[C@H](CC(=O)O)NC(=O)[C@H](CCO)NC(=O)[C@H](Cc2ccccc2)NC(=O)CSC[C@@H](C(=O)N[C@@H](C)C(=O)N[C@@H](CCC(=O)O)C(N)=O)NC(=O)[C@H](CO)NC(=O)[C@H](C(C)C)NC(=O)[C@H](CC(C)C)NC(=O)[C@H](CC(N)=O)NC(=O)[C@@H](CC(C)C)NC(=O)[C@H](C)N(C)C(=O)[C@H](C(C)C)NC(=O)[C@H](Cc2ccc(-c3ccccc3)cc2)NC1=O [Compound 2009] ({CH2CO}-F[hSer]DWL[Bip]V[NMeA][dL]NLVSCAE-NH2; thioether N-14) | 0.02
3 | CC(C)C[C@H]1NC(=O)[C@H](C)N(C)C(=O)[C@H](CCCN)NC(=O)[C@H](Cc2ccc(-c3ccccc3)cc2)NC(=O)[C@H](C(C)C)NC(=O)[C@H](Cc2c[nH]c3ccccc23)NC(=O)[C@H](CC(=O)O)NC(=O)[C@H](Cc2ccc(O)cc2)NC(=O)[C@H](CC(N)=O)NC(=O)CSC[C@@H](C(=O)N[C@@H](C)C(N)=O)NC(=O)[C@H]([C@@H](C)O)NC(=O)[C@H](C(C)C)NC(=O)[C@H](CC2CCCCC2)NC(=O)[C@H](CCN)NC1=O [Compound 1278] ({CH2CO}-NYDWV[Bip][Orn][NMeA][dL][Dab][Cha]VTCA-NH2; thioether N-14) | 0.01
4 | CC[C@H](C)[C@@H]1NC(=O)[C@H](Cc2ccc(-c3ccccc3)cc2)NC(=O)[C@H](C(C)C)NC(=O)[C@H](Cc2cccc(C)c2)NC(=O)[C@H](CC(=O)O)NC(=O)[C@H](Cc2ccc(O)cc2)NC(=O)[C@H](CC(N)=O)NC(=O)CSC[C@@H](C(=O)N[C@@H](CCN)C(N)=O)NC(=O)[C@H](CCC(=O)O)NC(=O)[C@H](C(C)(C)O)NC(=O)[C@H](CC2CCCCC2)NC(=O)[C@H](CCN)NC(=O)[C@@H](CC(C)C)NC(=O)[C@H](C)N(C)C1=O [Compound 1695] ({CH2CO}-NYD[Phe(3-Me)]V[Bip]I[NMeA][dL][Dab][Cha][Val(3-OH)]EC[Dab]-NH2; thioether N-14) | 0.01
5 | CC(C)C[C@@H]1NC(=O)[C@H](CCCNC(=N)N)NC(=O)[C@@H](Cc2ccccc2)NC(=O)[C@H](C)N(C)C(=O)[C@H](CCCNC(=N)N)NC(=O)[C@H](Cc2ccc(-c3ccccc3)cc2)NC(=O)[C@H](C(C)C)NC(=O)[C@H](Cc2c[nH]c3ccccc23)NC(=O)[C@H](CC(=O)O)NC(=O)[C@H](Cc2ccncc2)NC(=O)[C@H](CC(N)=O)NC(=O)CSC[C@@H](C(=O)N[C@@H](C)C(N)=O)NC(=O)[C@H]([C@@H](C)O)NC(=O)[C@H](C(C)C)NC1=O [Compound 1162] ({CH2CO}-N[4Pal]DWV[Bip]R[NMeA][dF]RLVTCA-NH2; thioether N-14) | 0.22
6 | CC[C@@H](C)[C@@H]1NC(=O)[C@H](Cc2ccc(-c3ccccc3)cc2)NC(=O)[C@H](CC(C)C)NC(=O)[C@H](Cc2c[nH]c3ccccc23)NC(=O)[C@H](CC(=O)O)NC(=O)[C@H](Cc2ccc(C(=O)O)cc2)NC(=O)[C@H](Cc2ccc(OCC(=O)O)cc2)NC(=O)CSC[C@@H](C(=O)N[C@@H](CCCCN)C(N)=O)NC(=O)[C@H](CC(N)=O)NC(=O)C(C(C)C)NC(=O)[C@H](CC(C)C)NC(=O)[C@H](CC(N)=O)NC(=O)[C@@H](CC(C)C)NC(=O)[C@H](C)N(C)C1=O (stereo partly drawn) [Compound 2109] ({CH2CO}-Y(Carboxymethyl)[Phe(4-COOH)]DWL[Bip][aIle][NMeA][dL]NL[ξV]NCK-NH2; thioether N-14) | 0.2
7 | CC(C)C[C@@H]1NC(=O)CSC[C@@H](C(=O)NCC(N)=O)NC(=O)[C@H](CO)NC(=O)[C@H](C(C)C)NC(=O)[C@H](CC(C)C)NC(=O)[C@H](CCCNC(=N)N)NC(=O)[C@@H](Cc2ccccc2)NC(=O)[C@H](C)N(C)C(=O)[C@H](CCCNC(=N)N)NC(=O)[C@H](Cc2ccc(-c3ccccc3)cc2)NC(=O)[C@H](C(C)C)NC(=O)[C@H](Cc2c[nH]c3ccccc23)NC(=O)[C@H](CC(=O)O)NC(=O)[C@H](Cc2ccc(O)cc2)NC1=O [Compound 1024] ({CH2CO}-LYDWV[Bip]R[NMeA][dF]RLVSCG-NH2; thioether N-14) | 0.15
8 | CC(C)C[C@@H]1NC(=O)[C@H](CCN)NC(=O)[C@@H](CC(C)C)NC(=O)[C@H](C)N(C)C(=O)[C@H](CCCNC(=N)N)NC(=O)[C@H](Cc2ccc(-c3cccc(C(N)=O)c3)cc2)NC(=O)[C@H](C(C)C)NC(=O)[C@H](Cc2c[nH]c3ccccc23)NC(=O)[C@H](CC(=O)O)NC(=O)[C@H](Cc2ccc(O)cc2)NC(=O)[C@H](CC(N)=O)NC(=O)CSC[C@@H](C(=O)N[C@@H](C)C(N)=O)NC(=O)[C@H]([C@@H](C)O)NC(=O)[C@H](C(C)C)NC1=O [Compound 1225] ({CH2CO}-NYDWV[X22]R[NMeA][dL][Dab]LVTCA-NH2; thioether N-14) | 0.29
9 | CC(C)C[C@@H]1NC(=O)[C@H](CCCNC(=N)N)NC(=O)[C@@H](CC(C)C)NC(=O)[C@H](C)N(C)C(=O)[C@H](CCCNC(=N)N)NC(=O)[C@H](Cc2ccc(-c3ccccc3)cc2)NC(=O)[C@H](C(C)C)NC(=O)[C@H](Cc2c[nH]c3ccccc23)NC(=O)[C@H](CC(=O)O)NC(=O)[C@H](Cc2ccc(O)cc2)NC(=O)[C@H](Cc2ccccc2)NC(=O)CSC[C@@H](C(=O)N[C@@H](C)C(N)=O)NC(=O)[C@H](CO)NC(=O)[C@H](C(C)C)NC1=O [Compound 1035] ({CH2CO}-FYDWV[Bip]R[NMeA][dL]RLVSCA-NH2; thioether N-14) | 0.08
10 | Cc1cccc(C[C@@H]2NC(=O)[C@H](CC(=O)O)NC(=O)[C@H](Cc3ccc(OCC(=O)O)cc3)NC(=O)C(Cc3ccncc3)NC(=O)CSC[C@@H](C(=O)NC3(C(N)=O)CC3)NC(=O)[C@H](CO)NC(=O)[C@H](C(C)C)NC(=O)[C@H](CC3CCCCC3)NC(=O)[C@H](CCN)NC(=O)[C@@H](CC(C)C)NC(=O)[C@H](C)N(C)C(=O)[C@H](Cc3ccc(OCC(=O)O)cc3)NC(=O)[C@H](Cc3ccc(-c4ccccc4)cc3)NC(=O)[C@H](Cc3ccc(OCC(=O)O)cc3)NC2=O)c1 (stereo partly drawn) [Compound 1863] ({CH2CO}-[ξ4Pal]Y(Carboxymethyl)D[Phe(3-Me)]Y(Carboxymethyl)[Bip]Y(Carboxymethyl)[NMeA][dL][Dab][Cha]VSC[Ac3c]-NH2; thioether N-14) | 0.01
11 | CCC(C)[C@@H]1NC(=O)[C@H](Cc2ccc(-c3ccccc3)cc2)NC(=O)[C@H](CC(C)C)NC(=O)[C@H](Cc2c[nH]c3ccccc23)NC(=O)[C@H](CC(=O)O)NC(=O)[C@H](Cc2ccc(OCC(=O)O)cc2)NC(=O)[C@H](C(C)O)NC(=O)CSC[C@@H](C(=O)N[C@@H](CC(N)=O)C(=O)O)NC(=O)[C@H](CC(=O)O)NC(=O)[C@H](C(C)C)NC(=O)[C@H](CC(C)C)NC(=O)[C@H](CCN)NC(=O)[C@@H](CC(C)C)NC(=O)[C@H](C)N(C)C1=O (stereo partly drawn) [Compound 2225] ({CH2CO}-[Thr(3ξ)]Y(Carboxymethyl)DWL[Bip][Ile(3ξ)][NMeA][dL][Dab]LVDCN-OH; thioether N-14) | 0.08
12 | CC(C)C[C@@H]1NC(=O)[C@H](CCN)NC(=O)[C@@H](CC(C)C)NC(=O)[C@H](C)N(C)C(=O)[C@H](C(C)C)NC(=O)[C@H](Cc2ccc(-c3ccccc3)cc2)NC(=O)[C@H](C(C)C)NC(=O)[C@H](Cc2c[nH]c3ccccc23)NC(=O)[C@H](CC(=O)O)NC(=O)[C@H](Cc2ccc(OCC(=O)O)cc2)NC(=O)[C@H](Cc2ccncc2)NC(=O)CSC[C@@H](C(=O)N[C@@H](C)C(N)=O)NC(=O)[C@H]([C@@H](C)O)NC(=O)[C@H](C(C)C)NC1=O [Compound 1565] ({CH2CO}-[4Pal]Y(Carboxymethyl)DWV[Bip]V[NMeA][dL][Dab]LVTCA-NH2; thioether N-14) | 0.01
13 | CC(C)C[C@@H]1NC(=O)[C@H](CCN)NC(=O)[C@@H](CC(C)C)NC(=O)[C@H](C)N(C)C(=O)[C@H](CCCNC(N)=O)NC(=O)[C@H](Cc2ccc(-c3ccccc3)cc2)NC(=O)[C@H](C(C)C)NC(=O)[C@H](Cc2c[nH]c3ccccc23)NC(=O)[C@H](CC(=O)O)NC(=O)[C@H](Cc2ccc(C(=O)O)cc2)NC(=O)[C@H](CC(N)=O)NC(=O)CSC[C@@H](C(=O)N[C@@H](C)C(N)=O)NC(=O)[C@H]([C@@H](C)O)NC(=O)[C@H](C(C)C)NC1=O [Compound 1317] ({CH2CO}-N[Phe(4-COOH)]DWV[Bip][Cit][NMeA][dL][Dab]LVTCA-NH2; thioether N-14) | 0.04
14 | CCC(C)[C@@H]1NC(=O)[C@H](Cc2ccc(-c3ccccc3)cc2)NC(=O)[C@H](CC(C)C)NC(=O)[C@H](Cc2c[nH]c3ccccc23)NC(=O)[C@H](CC(=O)O)NC(=O)[C@H](Cc2ccc(C(=O)O)cc2)NC(=O)[C@H](Cc2ccc(OCC(=O)O)cc2)NC(=O)CSC[C@@H](C(=O)N[C@@H](CCN)C(N)=O)NC(=O)[C@H](CCC(N)=O)NC(=O)[C@H](C(C)C)NC(=O)[C@H](CC2CCCCC2)NC(=O)[C@H](CCN)NC(=O)[C@@H](CC(C)C)NC(=O)[C@H](C)N(C)C1=O (stereo partly drawn) [Compound 1927] ({CH2CO}-Y(Carboxymethyl)[Phe(4-COOH)]DWL[Bip][Ile(3ξ)][NMeA][dL][Dab][Cha]VQC[Dab]-NH2; thioether N-14) | 0.01
15 | CC(C)C[C@@H]1NC(=O)[C@H](CCCNC(=N)N)NC(=O)[C@@H](CC(C)C)NC(=O)[C@H](C)N(C)C(=O)[C@H](CCCNC(N)=O)NC(=O)[C@H](Cc2ccc(-c3ccccc3)cc2)NC(=O)[C@H](C(C)C)NC(=O)[C@H](Cc2c[nH]c3ccccc23)NC(=O)[C@H](CC(=O)O)NC(=O)[C@H](Cc2ccc(O)cc2)NC(=O)[C@H](CC(N)=O)NC(=O)CSC[C@@H](C(=O)NCC(N)=O)NC(=O)[C@H](CO)NC(=O)[C@H](C(C)C)NC1=O [Compound 1246] ({CH2CO}-NYDWV[Bip][Cit][NMeA][dL]RLVSCG-NH2; thioether N-14) | 0.05

From patent US20240409585A1, “MACROCYCLIC IMMUNOMODULATORS” (priority 2021, published 2024)
